Source: ChEMBL document CHEMBL2073953, “The anthelminthic agent albendazole does not interact with p-glycoprotein” (Drug Metab Dispos, 2002)

How the values were obtained:
[1] = biological target: T1, ATP-dependent translocase ABCB1 (Homo sapiens, UniProt P08183); experiment: TP_TRANSPORTER: inhibition of Digoxin transepithelial transport (basal to apical) (Digoxin: 5 uM, Albendazole: 100 uM) in MDR1-expressing LLC-PK1 cells; assay type: functional, cell-based; conditions: pig, llc-pk1, 100 µM
[2] = biological target: T1, ATP-dependent translocase ABCB1; experiment: TP_TRANSPORTER: transepithelial transport (basal to apical) in MDR1-expressing LLC-PK1 cells; assay type: functional, cell-based; conditions: pig
[3] = biological target: P-glycoprotein 1 and 3 (MDR1a/MDR1b) (Mus musculus, UniProt P21447+P06795); experiment: TP_TRANSPORTER: tissue distribution in mdr1a/1b(-/-) mouse; assay type: functional, organism-based; conditions: in vivo

T1 sequence (P08183 whole entry): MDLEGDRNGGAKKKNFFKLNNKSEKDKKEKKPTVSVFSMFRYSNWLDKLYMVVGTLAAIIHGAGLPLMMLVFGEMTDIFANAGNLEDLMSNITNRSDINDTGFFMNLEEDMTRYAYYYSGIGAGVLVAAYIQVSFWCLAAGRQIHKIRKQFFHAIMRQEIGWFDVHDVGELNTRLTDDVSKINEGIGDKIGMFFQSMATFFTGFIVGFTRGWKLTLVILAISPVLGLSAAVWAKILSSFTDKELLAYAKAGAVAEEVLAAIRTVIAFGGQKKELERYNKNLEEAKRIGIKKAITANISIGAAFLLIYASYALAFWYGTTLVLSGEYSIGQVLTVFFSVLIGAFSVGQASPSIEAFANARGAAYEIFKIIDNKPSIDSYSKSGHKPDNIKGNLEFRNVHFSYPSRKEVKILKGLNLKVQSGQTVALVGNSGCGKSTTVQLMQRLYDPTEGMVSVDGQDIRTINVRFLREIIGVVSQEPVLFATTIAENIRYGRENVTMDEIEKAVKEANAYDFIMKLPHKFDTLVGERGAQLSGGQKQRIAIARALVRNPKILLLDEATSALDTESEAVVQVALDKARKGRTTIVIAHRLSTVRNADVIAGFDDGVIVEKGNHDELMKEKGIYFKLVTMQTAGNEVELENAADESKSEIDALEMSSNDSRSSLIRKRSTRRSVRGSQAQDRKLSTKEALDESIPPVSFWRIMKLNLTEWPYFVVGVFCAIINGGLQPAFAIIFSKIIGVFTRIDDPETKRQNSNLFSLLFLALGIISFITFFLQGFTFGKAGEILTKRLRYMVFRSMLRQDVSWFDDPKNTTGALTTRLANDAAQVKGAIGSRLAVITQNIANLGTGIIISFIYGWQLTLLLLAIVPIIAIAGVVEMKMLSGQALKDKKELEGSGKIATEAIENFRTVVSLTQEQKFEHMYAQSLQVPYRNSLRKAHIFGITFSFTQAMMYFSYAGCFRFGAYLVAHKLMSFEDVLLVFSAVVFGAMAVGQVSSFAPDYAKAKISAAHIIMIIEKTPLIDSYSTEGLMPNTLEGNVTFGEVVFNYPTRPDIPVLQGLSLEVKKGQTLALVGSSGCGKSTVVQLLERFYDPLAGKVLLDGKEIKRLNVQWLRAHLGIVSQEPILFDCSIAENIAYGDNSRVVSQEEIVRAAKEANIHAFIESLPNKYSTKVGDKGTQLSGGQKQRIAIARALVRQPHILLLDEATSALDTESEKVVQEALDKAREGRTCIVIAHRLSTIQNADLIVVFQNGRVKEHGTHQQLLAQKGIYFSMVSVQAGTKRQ

CCCSc1ccc2nc(NC(=O)OC)[nH]c2c1 [ALBENDAZOLE]
Activity [1]: is not an inhibitor [-] | Activity [2]: is not a substrate [-] | Activity [3]: is not a substrate [-]
